Values joined by “and” are separate entries in the source; they are usually repeats but may differ in a detail not shown here. Equal entries are not always repeated.
System: SkM
Experiment: Lipidomic profiling of skeletal muscle (quadriceps) of mice on chow or HFD
Format: in vivo
Text: Male C57BL6/J mice were obtained from the Animal Resources Centre in Perth (WA, Australia). […] Treatment was commenced at the same time as mice were randomised to dietary groups. The experiments were approved by the UNSW animal care and ethics committee (ACEC 15/48B), and followed guidelines issued by the National Health and Medical Research Council of Australia.
Lipids were extracted from frozen tissue samples or cells using a two-phase procedure with methyl-tert-butyl ether (MTBE)/methanol/water (10:3:2.5, v/v/v)[67]. Frozen tissue samples (~20 mg) were homogenized in 0.2 mL methanol containing 0.01% butylated hydroxytoluene (BHT), using a Precellys 24 homogenizer and Cryolys cooling unit (Bertin Technologies) with CK14 (1.4-mm ceramic) beads. The homogenates were spiked with an internal standard mixture comprising 5 nmole 19:0/19:0 phosphatidylcholine and 2 nmole each of 17:0/17:0 phosphatidylethanolamine, 17:0/17:0 phosphatidylserine, 17:0/17:0 d5-diacylglycerol, 17:0/17:0 phosphatidylglycerol, 14:0/14:0/14:0/14:0 cardiolipin, 18:1/12:0 SM, 18:1/17:0 ceramide, 18:1/12:0 glucosylceramide, 18:1/12:0 lactosylceramide, 18:1/12:0 sulfatide (all from Avanti Polar Lipids, USA), and 17:0/17:0/17:0 TAG (Cayman Chemical, USA), then transferred to 10 mL screw cap glass tubes. The homogenization tubes containing beads were then washed with another 0.3 mL methanol, and this wash was combined with the first methanol extract, after which 1.7 mL MTBE was added and the samples were sonicated in an ice-cold sonicating water bath (Thermoline Scientific, Australia) for 30 min. Phase separation was induced by addition of 417 µL of mass spectrometry-grade water followed by vortexing and centrifugation at 1000 × g for 10 min. The upper organic phase was collected into 5 mL glass tubes. The lower phase was re-extracted by adding 1 mL MTBE, 300 μL methanol, and 250 μL water. The organic phases were combined in the 5 mL glass tubes and dried under vacuum in a Savant SC210 SpeedVac (Thermo Scientific), then reconstituted in 500 μL methanol and stored at −20 °C until analysis.
Lipidomic profiling was performed on a QExactive Plus mass spectrometer with heated electrospray ionization (HESI) probe and a Dionex UltiMate 2000 LC pump (Thermo Fisher Scientific). Extracts were resolved on a 2.1 × 100 mm Waters Acquity C18 UPLC column (1.7 µm […]), using a binary gradient in which mobile phase A consisted of acetonitrile:water (60:40), 10 mM ammonium formate, 0.1% formic acid; and mobile phase B was isopropanol:acetonitrile (90:10), 10 mM ammonium formate, 0.1% formic acid[68]. The flow rate was 260 µL/min and column oven 55 °C. Data was acquired in full scan/data-dependent MS^2 mode (full scan resolution 70,000 FWHM, scan range 400–1200 m/z). The ten most abundant ions in each cycle were subjected to MS^2 using an isolation window of 1.4 m/z, collision energy 30 eV, resolution 17,500, maximum integration time 110 ms and dynamic exclusion window 10 s. An exclusion list of background ions was used based on a solvent blank. LipidSearch v4.1.30 software (ThermoFisher Scientific) was used for chromatogram alignment, peak identification and integration. Each lipid peak was manually verified for column elution time and characteristic fragment ions. Data were then exported to an Excel spreadsheet for normalisation of each lipid to its class-specific internal standard, and lipid concentrations were calculated relative to the internal standard.
Data were log transformed, then subjected to two-tailed t-tests adjusted for multiple comparisons using GraphPad PRISM (Benjamini, Krieger and Yekutieli correction, Q = 1%).

[1] = 5 mg/kg daily, 4–6 weeks, HFD group

## C[C@@](N)(CO)CCc1ccc(OCc2ccc(Cl)c(Cl)c2)cc1 [P053, (S)-2-amino-4-(4-(3,4-dichlorobenzyloxy)phenyl)-2-methylbutan-1-ol]
5 mg/kg daily, 4–6 weeks
  HexCer content of SkM: not significantly affected
  levels of common phospholipids in SkM: did not affect
  total ceramide content of SkM: reduced total ceramide content
[1]
  42:2 SM in SkM: significantly increased
  very long chain ceramides (C22:0, C24:0 and C24:1) in SkM: significantly increased
5 mg/kg daily, 4–6 weeks, both diets, not statistically significant
  mean levels of 36:1 SM in SkM, lower than vehicle: 13%
Chow + P053, individual mice
  Ceramide 18:1/16:0 content of skeletal muscle: 3.10 and 1.77 (2×) and 2.74 and 1.05 and 2.59 and 2.04 and 2.73 and 4.80 and 1.58 and 1.47 and 1.10 and 1.69 and 1.86 and 1.78 and 2.17 and 1.48 (2×)
  Ceramide 18:1/18:0 content of skeletal muscle: 20.71 and 17.58 and 23.00 and 14.06 and 16.77 and 18.40 (2×) and 20.26 and 15.08 and 13.86 and 23.04 and 23.06 and 23.01 and 18.78 and 15.44 and 14.24 and 19.21 and 15.87
  Ceramide 18:1/20:0 content of skeletal muscle: 0.50 and 0.38 (2×) and 0.51 and 0.33 and 0.44 and 0.57 and 0.41 and 0.18 (2×) and 0.21 and 0.17 (2×) and 0.22 and 0.15 (2×) and 0.13 and 0.20
  Ceramide 18:1/22:0 content of skeletal muscle: 1.58 and 1.18 and 1.27 and 1.31 and 1.33 and 1.24 and 2.02 and 1.70 and 0.82 and 0.97 and 0.93 and 1.37 and 0.85 and 1.53 and 1.04 (2×) and 0.62 and 0.77
  Ceramide 18:1/24:0 content of skeletal muscle: 2.05 and 1.75 and 2.39 and 1.84 (2×) and 2.22 and 3.08 and 3.05 and 1.41 and 1.81 and 2.08 and 2.47 and 0.10 and 2.48 and 0.14 and 1.18 and 1.87 and 1.61
  Ceramide 18:1/24:1 content of skeletal muscle: 5.19 and 4.17 and 5.42 and 4.06 and 4.86 and 4.12 and 6.25 and 6.63 and 2.73 and 3.16 and 3.08 and 4.65 and 3.22 and 4.69 and 3.70 and 2.46 and 3.14 and 2.75
  Ceramide 18:2/18:0 content of skeletal muscle: 1.63 and 1.36 and 1.77 and 0.81 and 1.04 and 1.34 and 1.47 (2×) and 1.60 and 2.11 and 1.87 and 1.91 and 1.85 and 1.31 and 1.49 and 1.75 and 1.71 and 1.50
  SM 34:1 content of skeletal muscle: 155.00 and 75.29 and 64.44 and 51.84 and 157.48 and 87.87 and 37.17 and 61.63 and 56.39 and 26.64 and 21.61 and 27.95 and 26.10 and 29.76 and 25.67 and 36.05 and 29.79 and 28.45
  SM 36:1 content of skeletal muscle: 408.35 and 391.75 and 244.36 and 209.60 and 257.92 and 303.73 and 198.39 and 281.99 and 211.03 and 160.27 and 169.50 and 130.04 and 157.61 and 130.34 and 143.84 and 173.19 and 158.59 and 154.00
  SM 36:2 content of skeletal muscle: 5.68 and 10.86 and 10.80 and 2.69 and 6.07 and 9.49 and 5.32 and 8.00 and 6.39 and 4.78 and 4.58 and 3.87 and 4.48 and 3.64 and 4.59 and 6.14 and 4.52 and 4.32
  SM 38:1 content of skeletal muscle: 13.22 and 12.48 and 5.72 and 6.13 and 5.91 and 5.41 and 17.63 and 9.33 and 1.53 and 1.84 and 1.68 and 1.39 and 1.34 and 1.51 and 1.41 and 1.37 and 2.56 and 1.65
  SM 40:1 content of skeletal muscle: 28.35 and 29.55 and 12.61 and 11.97 and 14.98 and 15.26 and 24.07 and 17.95 and 17.87 and 21.14 and 17.97 and 25.28 and 16.09 and 25.29 and 21.99 and 14.69 and 26.69 and 18.42
  SM 40:2 content of skeletal muscle: 2.18 and 3.25 and 1.19 and 1.06 and 1.18 and 0.98 and 4.74 and 3.00 and 1.89 and 2.04 and 2.38 and 2.68 and 1.85 and 2.58 and 2.52 and 1.52 and 2.57 and 1.93
  SM 42:1 content of skeletal muscle: 26.96 and 32.88 and 11.84 and 14.58 and 16.55 and 13.22 and 32.58 and 20.65 and 17.62 and 18.82 and 16.13 and 27.77 and 16.56 and 31.99 and 21.25 and 13.55 and 28.43 and 16.15
  SM 42:2 content of skeletal muscle: 78.98 and 85.87 and 38.45 and 39.28 and 45.06 and 42.02 and 67.24 and 61.76 and 56.89 and 58.53 and 52.21 and 80.69 and 50.18 and 74.84 and 63.29 and 51.49 and 78.04 and 54.99
  SM 42:3 content of skeletal muscle: 11.26 and 12.44 and 7.12 and 5.50 and 7.16 and 6.69 and 11.58 and 9.28 and 9.04 and 9.58 and 8.81 and 14.49 and 7.86 and 11.12 and 9.61 and 8.30 and 13.11 and 8.65
HFD + P053
  total SkM TAG content, lower than HFD vehicle group: 60%
HFD + P053, individual mice
  Ceramide 18:1/16:0 content of skeletal muscle: 1.10 and 2.17 and 1.83 and 1.12 (2×) and 2.90 and 1.46 and 0.87 (2×) and 1.73 and 3.22 and 1.34 and 1.89 and 1.27 and 1.41 and 1.14 and 1.04 and 0.99 and 1.01
  Ceramide 18:1/18:0 content of skeletal muscle: 14.13 and 13.78 and 15.90 and 15.58 and 21.96 and 19.36 and 13.96 and 15.88 and 24.31 and 19.32 and 17.61 and 21.70 and 17.37 and 21.41 and 15.56 and 12.14 and 18.07 and 11.49 and 13.22
  Ceramide 18:1/20:0 content of skeletal muscle: 0.45 (2×) and 0.54 and 0.57 and 0.65 and 0.48 and 0.42 and 0.40 and 0.77 and 0.10 (2×) and 0.08 (2×) and 0.06 (2×) and 0.07 (2×) and 0.05 and 0.09
  Ceramide 18:1/22:0 content of skeletal muscle: 1.69 and 1.43 and 1.68 and 1.85 and 2.17 and 1.53 and 1.50 and 1.46 and 2.26 and 1.14 and 1.16 and 1.47 and 1.36 and 1.00 and 1.18 and 0.98 and 1.30 and 1.04 and 1.72
  Ceramide 18:1/24:0 content of skeletal muscle: 1.53 (2×) and 1.50 and 1.85 and 1.78 and 2.27 and 1.57 (2×) and 1.81 and 2.48 and 1.41 and 1.31 and 1.65 and 1.24 and 1.83 and 1.21 and 1.67 and 1.20 and 1.73
  Ceramide 18:1/24:1 content of skeletal muscle: 4.07 and 3.37 and 3.91 and 3.88 and 4.88 and 3.55 (2×) and 3.81 and 5.60 and 2.28 and 2.44 and 3.08 and 2.82 and 2.33 and 2.75 and 2.49 and 2.86 and 2.35 and 3.30
  Ceramide 18:2/18:0 content of skeletal muscle: 0.85 (2×) and 1.05 and 0.95 and 1.06 and 1.53 and 1.34 and 0.98 and 1.27 and 2.27 and 1.58 and 1.22 and 1.29 (2×) and 0.73 and 0.92 and 1.11 and 0.97 and 0.74
  SM 34:1 content of skeletal muscle: 56.88 and 99.05 and 291.61 and 79.88 and 179.42 and 129.66 and 30.83 and 225.53 and 214.19 and 48.41 and 47.17 and 48.35 and 37.16 and 22.64 and 38.24 and 42.99 and 33.41 and 36.54 and 32.79
  SM 36:1 content of skeletal muscle: 417.25 and 223.91 and 402.67 and 173.58 and 151.95 and 224.57 and 278.63 and 314.63 and 349.53 and 221.70 and 178.54 and 207.41 and 149.58 and 139.86 and 137.50 and 198.09 and 163.61 and 154.30 and 147.61

— publication PMC6104039 (Nature Communications, 2018)
